# Assay results from US7101878B1 (Agouron Pharmaceuticals, Inc., priority 1998, dated 2006).
# Where two headings read alike, the source gives them in different places.
# Key:
# bovine GnRH receptor = target: T1, bovine GnRH receptor (Bos taurus, UniProt P32236); experiment: Radioligand binding, 125I-GnRH-A, bovine pituitary membranes
# T1 construct: membranes were prepared from bovine pituitary; from tissue; host or cells: bovine pituitary
# T1 sequence (P32236 1-328): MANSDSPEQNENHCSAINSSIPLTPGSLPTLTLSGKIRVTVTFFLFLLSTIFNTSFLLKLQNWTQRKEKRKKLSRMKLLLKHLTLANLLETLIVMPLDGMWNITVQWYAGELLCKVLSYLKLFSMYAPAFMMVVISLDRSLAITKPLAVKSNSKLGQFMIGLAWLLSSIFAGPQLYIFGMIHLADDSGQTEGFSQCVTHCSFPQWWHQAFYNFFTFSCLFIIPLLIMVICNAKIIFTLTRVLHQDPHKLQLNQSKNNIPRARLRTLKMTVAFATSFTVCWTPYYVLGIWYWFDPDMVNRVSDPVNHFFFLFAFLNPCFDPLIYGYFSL
# Protocol: All compounds were diluted in 1% DMSO (final assay concentration) in binding assay buffer. […] Reactions were terminated by rapid filtration onto 96-well Packard GF/C filters soaked in 0.1% polyethyleneimine. Filters were washed three times with PBS buffer, dried and counted on a Packard Topcount by liquid scintillation counting.
# Assay conditions were identical for assessing compound activities at other species. […] IC50 values for control peptides and test compounds were calculated utilizing GraphPad Prism™ software.
# The reaction mixture was vortexed and incubated for 1 min at room temperature. After one min, the mixture was vortexed and allowed to incubate for an additional minute. 2 ml of 0.5 M acetic acid/1% BSA was added to the reaction tube and the mixture was added to a C18 Sep-Pak cartridge. The cartridge was washed with subsequent washes of 5 ml H2O and 5 ml 0.5M acetic acid and then eluted with 5×1 ml of 60% CH3CN/40% 0.5M acetic acid. The eluate was diluted with 3× volume of HPLC buffer A (0.1% TFA in H2O) and loaded onto a C18 column. […] The radioactive fractions (750 ed/fraction) are collected into clean polypropylene tubes containing 100 μl of 10% BSA. Fractions were assessed for biological activity by radioligand binding.
# rat GnRH receptor = target: T2, rat GnRH receptor (Rattus norvegicus, UniProt P30969); experiment: Radioligand binding, 125I-GnRH-A, rat pituitary membranes; design: membranes were prepared from rat pituitary; from tissue; host or cells: rat pituitary
# T2 sequence (P30969 1-327): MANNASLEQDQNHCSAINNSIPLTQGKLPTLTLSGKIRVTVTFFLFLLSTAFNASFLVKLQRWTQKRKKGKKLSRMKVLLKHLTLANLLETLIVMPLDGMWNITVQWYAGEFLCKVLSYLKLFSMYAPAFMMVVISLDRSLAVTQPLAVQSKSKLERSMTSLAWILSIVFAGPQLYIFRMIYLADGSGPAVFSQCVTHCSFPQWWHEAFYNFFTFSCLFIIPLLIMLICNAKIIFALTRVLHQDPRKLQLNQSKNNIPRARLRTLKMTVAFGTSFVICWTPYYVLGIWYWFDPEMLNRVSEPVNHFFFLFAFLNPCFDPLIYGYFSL
# In short: (§1)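 Bound label captured on 0.1% polyethyleneimine-treated GF/C filters, washed three times with PBS, counted. IC50 derived; identical set-up for every species.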
# mouse GnRH receptor = target: T3, mouse GnRH receptor (Mus musculus, UniProt Q01776); experiment: Radioligand binding, 125I-GnRH-A, 293 cells expressing mouse GnRH receptors
# T3 construct: expressed in transfected cells; host or cells: 293 cells
# T3 sequence (Q01776 1-327): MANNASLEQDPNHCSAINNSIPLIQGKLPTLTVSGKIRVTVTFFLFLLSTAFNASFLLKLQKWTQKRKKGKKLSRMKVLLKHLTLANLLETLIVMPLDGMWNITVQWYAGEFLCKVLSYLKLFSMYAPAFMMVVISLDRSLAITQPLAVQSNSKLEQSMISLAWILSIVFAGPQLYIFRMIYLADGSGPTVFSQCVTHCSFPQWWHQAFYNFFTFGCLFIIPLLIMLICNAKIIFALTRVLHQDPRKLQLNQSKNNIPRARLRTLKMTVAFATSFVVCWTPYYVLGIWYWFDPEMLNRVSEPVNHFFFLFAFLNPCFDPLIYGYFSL
# In short: as §1
# human GnRH receptor = target: T4, human GnRH receptor (Homo sapiens, UniProt P30968); experiment: Radioligand binding, 125I-GnRH-A displacement, membranes of HEK 293 cells with human GnRH receptor
# T4 construct: expressed in transfected cells; host or cells: HEK 293 (hGnRH-R/293, from Dr. Stuart Sealfon)
# T4 sequence (P30968 1-328): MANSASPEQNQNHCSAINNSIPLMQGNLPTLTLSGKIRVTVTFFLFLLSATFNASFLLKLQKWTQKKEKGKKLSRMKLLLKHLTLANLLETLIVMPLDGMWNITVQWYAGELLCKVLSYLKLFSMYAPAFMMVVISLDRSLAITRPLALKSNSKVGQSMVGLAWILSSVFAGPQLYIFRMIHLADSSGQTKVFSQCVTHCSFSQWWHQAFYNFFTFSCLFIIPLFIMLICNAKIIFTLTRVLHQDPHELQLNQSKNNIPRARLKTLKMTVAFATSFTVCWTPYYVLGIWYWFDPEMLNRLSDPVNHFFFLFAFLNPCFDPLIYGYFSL
# In short: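 After filtration and PBS washes, bound radioactivity was counted by scintillation and IC50 derived. Identical conditions applied for non-human receptors.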
# hGnRH receptor = target: T5, hGnRH receptor (Homo sapiens, UniProt P30968); experiment: Total inositol phosphates measurement, 293 cells containing the hGnRH receptor; type: cell-based; conditions: for GnRH functional: no species or readout annotated
# T5 construct: expressed in transfected cells; host or cells: HEK 293 (hGnRH-R/293, from Dr. Stuart Sealfon)
# T5 sequence (P30968 1-328): T4 sequence (P30968 1-328)
# Protocol: To assess the activity of the compounds as agonists or antagonists, an assay measuring accumulation of total inositol phosphates was employed. 293 cells containing the hGnRH receptor were plated onto 24-well plates (approximately 200,000 cells/well) using DMEM media. […] The medium was aspirated and the cells rinsed with serum-free DMEM. The medium was aspirated and the cells were then treated with test compounds or vehicle for 30 minutes at 37° C. […] The media was replaced with ice-cold 10 mM formic acid, which stopped the reaction and also served to extract cellular lipids. Inositol phosphates were separated by ion-exchange chromatography on Dowex columns, which were washed with 2.5 mL of 10 mM myoinositol and 10 mM formic acid. The columns were then washed with 5 mL of 60 mM sodium formate and […], and total inositol phosphates were eluted with 5 mL 1M ammonium formate, 0.1 M formic acid. The column eluates were added to liquid scintillation vials containing 15 ml of scintillation cocktail and were counted by liquid scintillation counting.
# This cell line was provided by Dr. Stuart Sealfon, Mount Sinai Medical School New York, N.Y. These cells were grown in DMEM supplemented with 0.2 g/L G418 100 U/ml penicillin/streptomycin and 10% FBS. Both GGH3 and hGnRH-R/293 cells were utilized for both for both total inositol phosphate measurement and for microphysiometry assessment of compound efficacy.
# [1] = Metabolism rate, pmol/min/mg at 1 μM, rat male; type: in vitro ADME; conditions: 1 μM compound
# [2] = Metabolism rate, pmol/min/mg at 1 μM, human; type: in vitro ADME; conditions: 1 μM compound
# [3] = Pharmacokinetic studies / bioavailability in rats; type: in vivo, rat; conditions: male, rat, plasma, iv, 10 mg/kg, rat male
# [4] = tested on: LH levels in castrated rats; experiment: Castrated male rat model, LH suppression; type: in vivo; conditions: 10 mg/kg iv
# Excerpt: Experimental Protocol: Male Sprague-Dawley (225-250 g) rats were castrated and allowed 10 days postoperative recovery. Ten days post castration animals were instrumented with indwelling femoral venous and arterial catheters to facilitate remote infusions and blood sampling. On the day of the experiment, animals were allowed to acclimate to the procedure room while residing in their home cage. Basal blood samples were drawn from all animals. Following basal sampling, either vehicle (10% DMSO, 10% cremophor/saline), Antide (1.0 μg) or compound 11 (10 mg/kg) was administered intravenously. Blood samples were drawn 10, 60, 90, 120, 180, 240 minutes after injections. Blood was centrifuged, serum collected and stored in −70° freezer until assayed. Serum samples were analyzed using DSL-4600 ACTIVE LH coated-tube immunoradiometric assay kit from Diagnostic Systems Laboratories, Inc.
# Surgical removal of the gonads removes circulating testosterone and eliminates the negative feedback of testosterone on the hypothalamus. […] This model seems suitable for evaluating small molecule GnRH antagonists.
# Male Sprague-Dawley ([…]) rats were castrated via the scrotal approach under halothane anesthesia. Animals were allowed 14 days post operative recovery prior to study. Thirteen days following castration, animals were anesthetized with halothane and instrumented with indwelling jugular vein cannula. Details of the cannulation procedure have been described previously {Harms and Ojeda, 1974)}. On study day, animals were allowed to acclimate to the procedure room while residing in their home cage. Basal blood samples were drawn from all animals. Immediately following basal sampling, vehicle or test compounds were administered by various routes. The routes of administration employed were intravenous (iv), intramuscular (im), intraperitoneal (ip), subcutaneous (sc) and oral (po). Blood samples were drawn into heparin containing tubes at multiple time points post treatment. Blood was centrifuged immediately, plasma collected and stored in −20° freezer until assayed. Plasma samples were analyzed using DSL-4600 ACTIVE LH coated-tube immunoradiometric assay kit from Diagnostic Systems Laboratories, Inc.
# Formulation #1 (denoted with superscript 1): 10% DMSO, 10% Cremophor EL and 80% physiological saline.
# Formulation #2 (denoted with superscript 2): 10% Cremophor EL and 90% physiological saline.
# [5] = Metabolism rate, pmol/min/mg at 1 μM, rat female; type: in vitro ADME; conditions: 1 μM compound
# [6] = second value marked * (mostly in parentheses), asterisk not explained, read-out: hGnRH IC50, value marked *
"IC50 (bovine GnRH receptor; means ± SE of at least three experiments performed in duplicate, read-out: Bovine IC50)","IC50 (rat GnRH receptor; means ± SE of at least three experiments performed in duplicate, read-out: Rat IC50)",IC50 (rat GnRH receptor; read-out: rGnRH IC50),"IC50 (mouse GnRH receptor; means ± SE of at least three experiments performed in duplicate, read-out: Mouse IC50)",IC50 (mouse GnRH receptor; read-out: mGnRH IC50),"IC50 (human GnRH receptor; means ± SE of at least three experiments performed in duplicate, read-out: Human IC50)",IC50 (human GnRH receptor; read-out: hGnRH IC50),IC50 (human GnRH receptor; [6]),Kb (hGnRH receptor),IC50 (bovine GnRH receptor; read-out: bGnRH IC50),Rat male pmol/min/mg 1 μM [1],Human pmol/min/mg 1 μM [2],GnRH functional (hGnRH receptor),half-life [3],Rat female pmol/min/mg 1 μM [5],Compound,% Max LH Suppression [4],time of % Max LH Suppression [4]
3800 ± 220 nM,680 ± 120 nM,680 nM,2300 ± 460 nM,2300 nM,220 ± 33 nM,220 nM,40 nM,30 nM,,,,,,,Cc1cc2c(cc1Cc1ccc(C(=O)NCC3CCC(CNC(=N)N)CC3)o1)C(C)(C)CCC2(C)C (stereo not drawn) [Compound 9],,
,,730 nM,,2100 nM,,220 nM,40 nM,,2830 nM,141 pmol/min/mg,263 pmol/min/mg,Antag- onist,48 min,,Cc1cc2c(cc1Cc1ccc(C(=O)NC[C@H]3CC[C@@H](CNC(=N)N)CC3)o1)C(C)(C)CCC2(C)C [Compound 23],,
,,2800 nM,,1880 nM,,140 nM,,,8900 nM,,,Antag- onist,,,CCOC(=O)[C@H]1CC[C@H](CNC(=O)c2ccc(Cc3cc4c(cc3C)C(C)(C)CCC4(C)C)o2)CC1 [Compound 31],,
,,2900 nM,,3800 nM,,215 nM,,,12500 nM,,,Antag- onist,,,Cc1cc2c(cc1Cc1ccc(C(=O)NCC3CCCCC3)o1)C(C)(C)CCC2(C)C [Compound 36],,
,,23 nM,,83 nM,,52 nM,,,,1794 pmol/min/mg,689 pmol/min/mg,,,330 pmol/min/mg,COc1cccc(OC)c1NC(=O)c1ccc(Cc2cc(C(C)(C)C)ccc2C)o1 [Compound 206],51%,1 h
